From patent US20070179060A1, “6-(Poly-substituted aryl)-4-aminopicolinates and their use as herbicides” (priority 2006, published 2007)

Key:
[1] = system: velvetleaf (Abutilon theophrasti); experiment: Postemergence herbicidal activity; type: in vivo; conditions: Abutilon theophrasti, post-emergence, 336 h, post-emergent, 140 g ai/ha, after 14 days; read-out: % Control ABUTH
Procedure, shortened: (§1)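 Plants grown 7-21 days in greenhouse (about 15 h photoperiod, 23-29° C day, 22-28° C night) to first or second true leaf stage. Compounds in acetone/water/isopropanol/DMSO carrier with crop oil concentrate and Triton X-155 sprayed overhead at 187 L/ha; controls received solvent blank. Plants sub-irrigated afterwards; dose responses analysed by probit analysis.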

[2] = system: redroot pigweed (Amaranthus retroflexus); experiment: Postemergence herbicidal activity; type: in vivo; conditions: Amaranthus retroflexus, post-emergence, 336 h, post-emergent, 140 g ai/ha, after 14 days; read-out: % Control AMARE
Procedure, shortened: as §1

[3] = system: lambsquarter (Chenopodium album); experiment: Postemergence herbicidal activity; type: in vivo; conditions: Chenopodium album, post-emergence, 336 h, post-emergent, 140 g ai/ha, after 14 days; read-out: % Control CHEAL
Procedure, shortened: as §1

[4] = system: velvetleaf (Abutilon theophrasti); experiment: Preemergence herbicidal activity; type: in vivo; conditions: Abutilon theophrasti, pre-emergence, 480 h; pre-emergent, 140 g ai/ha, after 20-22 days; read-out: % Control ABUTH
Procedure, shortened: (§2)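 Seeds sown in 70:30 loam (pH about 8.1, about 1.5% organic matter) and sand mix, then sprayed preemergence at 187 L/ha with a track sprayer; controls received solvent blank. Pots kept in greenhouse, about 15 h photoperiod, about 23-29° C. day and 22-28° C. night, top-irrigated.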

[5] = system: redroot pigweed (Amaranthus retroflexus); experiment: Preemergence herbicidal activity; type: in vivo; conditions: Amaranthus retroflexus, pre-emergence, 480 h; pre-emergent, 140 g ai/ha, after 20-22 days; read-out: % Control AMARE
Procedure, shortened: as §2

[6] = system: lambsquarter (Chenopodium album); experiment: Preemergence herbicidal activity; type: in vivo; conditions: Chenopodium album, pre-emergence, 480 h; pre-emergent, 140 g ai/ha, after 20-22 days; read-out: % Control CHEAL
Procedure, shortened: as §2

Veronica persica = experiment: Postemergence herbicidal activity in cereal crops; type: in vivo; conditions: Veronica persica, post-emergence, 480 h, post-emergent, after 20-22 days, read-out: % Control VERPE; for pest or weed control at 70 g/ha: 70 g ai/ha
Protocol: (§3) When required to ensure good germination and healthy plants, a fungicide treatment and/or other chemical or physical treatment was applied. The plants were grown for 7-36 days in a greenhouse with an approximate 14 hour photoperiod which was maintained at about 18° C. during the day and 17° C. during the night. Nutrients and water were added on a regular basis and supplemental lighting was provided with overhead metal halide 1000-Watt lamps as necessary. The plants were employed for testing when they reached the second or third true leaf stage. […] The concentrated stock solutions obtained were diluted with 16 mL of an aqueous mixture containing acetone, water, isopropyl alcohol, DMSO, Agri-dex crop oil concentrate, and Triton® X-77 surfactant in a 64.7:26.0:6.7:2.0:0.7:0.01 v/v ratio to obtain spray solutions containing the highest application rates. […] Compound requirements are based upon a 12 mL application volume at a rate of 187 L/ha. Formulated compounds were applied to the plant material with an overhead Mandel track sprayer equipped with a […] nozzles calibrated to deliver 187 L/ha over an application area of 0.503 square meters at a spray height of 18 inches (43 cm) above average plant canopy height. Control plants were sprayed in the same manner with the blank. The treated plants and control plants were placed in a greenhouse as described above and watered by sub-irrigation to prevent wash-off of the test compounds.

Lamium purpureum = experiment: Postemergence herbicidal activity in cereal crops; type: in vivo; conditions: Lamium purpureum, post-emergence, 480 h, post-emergent, after 20-22 days, read-out: % Control LAMPU; for pest or weed control at 70 g/ha: 70 g ai/ha
Protocol: as §3

[7] = system: wheat (Triticum aestivum); experiment: Postemergence herbicidal activity in cereal crops; type: in vivo; conditions: Triticum aestivum, post-emergence, 480 h, crop, post-emergent, after 20-22 days, read-out: % Control TRZAS; for plant injury at 70 g/ha: 70 g ai/ha
Protocol: as §3

barley (Hordeum vulare) = experiment: Postemergence herbicidal activity in cereal crops; type: in vivo; conditions: Hordeum, post-emergence, 480 h, crop, post-emergent, after 20-22 days, read-out: % Control HORVS; for pest or weed control at 70 g/ha: 70 g ai/ha
Protocol: as §3

Galium aparine = experiment: Postemergence herbicidal activity in cereal crops; type: in vivo; conditions: Galium aparine, post-emergence, 480 h, post-emergent, after 20-22 days, read-out: % Control GALAP; for pest or weed control at 70 g/ha: 70 g ai/ha
Protocol: as §3

Papaver rhoeas = experiment: Postemergence herbicidal activity in cereal crops; type: in vivo; conditions: Papaver rhoeas, post-emergence, 480 h, post-emergent, after 20-22 days, read-out: % Control PAPRH; for pest or weed control at 70 g/ha: 70 g ai/ha
Protocol: as §3

SMILES	pest or weed control at 140 g/ha [1]	pest or weed control at 140 g/ha [2]	pest or weed control at 140 g/ha [3]	pest or weed control at 140 g/ha [4]	pest or weed control at 140 g/ha [5]	pest or weed control at 140 g/ha [6]	melting point	pest or weed control at 70 g/ha (Veronica persica)	pest or weed control at 70 g/ha (Lamium purpureum)	plant injury at 70 g/ha [7]	pest or weed control at 70 g/ha (barley (Hordeum vulare))	pest or weed control at 70 g/ha (Galium aparine)	pest or weed control at 70 g/ha (Papaver rhoeas)	other results
COC(=O)c1nc(-c2ccc(Cl)c(OC)c2F)c(F)c(N)c1Cl [Compound 14, 4-Amino-3-chloro-5-fluoro-6-(4-chloro-2-fluoro-3-methoxyphenyl)pyridine-2-carboxylic acid methyl ester]	100%	100%	100%	100%	100%	100%	172 to 173 °C							pest or weed control at 35 g/ha (Veronica persica; 35 g ai/ha): 65%; pest or weed control at 35 g/ha (Lamium purpureum; 35 g ai/ha): 95%; plant injury at 35 g/ha ([7]; 35 g ai/ha): 0%; pest or weed control at 35 g/ha (barley (Hordeum vulare); 35 g ai/ha): 0%; pest or weed control at 35 g/ha (Galium aparine; 35 g ai/ha): 90%; pest or weed control at 35 g/ha (Papaver rhoeas; 35 g ai/ha): 95%
COC(=O)c1nc(-c2ccc(Cl)c(N(C)C)c2F)cc(N)c1Cl [Compound 16, 4-Amino-3-chloro-6-(4-chloro-3-dimethylamino-2-fluorophenyl)pyridine-2-carboxylic acid, methyl ester]	100%	100%	100%	90%	100%	100%	104 to 106 °C							pest or weed control at 17.5 g/ha (Veronica persica; 17.5 g ai/ha): 95%; pest or weed control at 17.5 g/ha (Lamium purpureum; 17.5 g ai/ha): 100%; plant injury at 17.5 g/ha ([7]; 17.5 g ai/ha): 10%; pest or weed control at 17.5 g/ha (barley (Hordeum vulare); 17.5 g ai/ha): 10%; pest or weed control at 17.5 g/ha (Galium aparine; 17.5 g ai/ha): 95%; pest or weed control at 17.5 g/ha (Papaver rhoeas; 17.5 g ai/ha): 95%
COC(=O)c1nc(-c2cc(N(C)C)c(Cl)cc2F)cc(N)c1Cl [Compound 26, 4-amino-3-chloro-6-(4-chloro-5-dimethylamino-2-fluorophenyl)pyridine-2-carboxylic acid methyl ester]	100%	100%	100%	10%	10%	90%	113 to 115 °C	40%	95%	0%	10%	80%	95%	
COC(=O)c1nc(-c2cc(OC)c(Cl)cc2F)cc(N)c1Cl [Compound 43, 4-Amino-3-chloro-6-(4-chloro-2-fluoro-5-methoxyphenyl)pyridine-2-carboxylic acid methyl ester]	100%	100%	100%	98%	100%	100%		30%	99%	0%	5%	65%	85%	
COC(=O)c1nc(-c2c(F)cc(Cl)c(N(C)C)c2F)cc(N)c1Cl [Compound 50, 4-Amino-3-chloro-6-[4-chloro-3-(dimethylamino)-2,6-difluorophenyl]pyridine-2-carboxylic acid, methyl ester]	100%	100%	100%	100%	100%	100%		60%	100%	0%	0%	95%	95%	
COc1cc(-c2cc(N)c(Cl)c(C(=O)O)n2)c(F)cc1Cl [Compound 101, 4-Amino-3-chloro-6-(4-chloro-2-fluoro-5-methoxyphenyl)pyridine-2-carboxylic acid]	100%	100%	100%	100%	100%	100%		60%	99%	10%	5%	60%	100%	
